# Earlier results as cited in US20250195486A1 (Closed Loop Medicine Ltd., priority 2023, published 2025).
# Entries after “also recorded” stand apart in the source; their conditions may differ. Like-named read-outs stand apart in the source and are kept apart here.
# Experiments:
# [1] = Niebecker et al. (2015)
# [2] = system: patients with NVAF; settings: patient with normal renal function
# [3] = population mean; Song et al. (2014), Phases I and II
# [4] = Yin et al. (2014)
# [5] = Salazar et al. (2012)
# [6] = target: P-gp (Homo sapiens, UniProt P08183)
# Sequence of P-gp (P08183 whole entry): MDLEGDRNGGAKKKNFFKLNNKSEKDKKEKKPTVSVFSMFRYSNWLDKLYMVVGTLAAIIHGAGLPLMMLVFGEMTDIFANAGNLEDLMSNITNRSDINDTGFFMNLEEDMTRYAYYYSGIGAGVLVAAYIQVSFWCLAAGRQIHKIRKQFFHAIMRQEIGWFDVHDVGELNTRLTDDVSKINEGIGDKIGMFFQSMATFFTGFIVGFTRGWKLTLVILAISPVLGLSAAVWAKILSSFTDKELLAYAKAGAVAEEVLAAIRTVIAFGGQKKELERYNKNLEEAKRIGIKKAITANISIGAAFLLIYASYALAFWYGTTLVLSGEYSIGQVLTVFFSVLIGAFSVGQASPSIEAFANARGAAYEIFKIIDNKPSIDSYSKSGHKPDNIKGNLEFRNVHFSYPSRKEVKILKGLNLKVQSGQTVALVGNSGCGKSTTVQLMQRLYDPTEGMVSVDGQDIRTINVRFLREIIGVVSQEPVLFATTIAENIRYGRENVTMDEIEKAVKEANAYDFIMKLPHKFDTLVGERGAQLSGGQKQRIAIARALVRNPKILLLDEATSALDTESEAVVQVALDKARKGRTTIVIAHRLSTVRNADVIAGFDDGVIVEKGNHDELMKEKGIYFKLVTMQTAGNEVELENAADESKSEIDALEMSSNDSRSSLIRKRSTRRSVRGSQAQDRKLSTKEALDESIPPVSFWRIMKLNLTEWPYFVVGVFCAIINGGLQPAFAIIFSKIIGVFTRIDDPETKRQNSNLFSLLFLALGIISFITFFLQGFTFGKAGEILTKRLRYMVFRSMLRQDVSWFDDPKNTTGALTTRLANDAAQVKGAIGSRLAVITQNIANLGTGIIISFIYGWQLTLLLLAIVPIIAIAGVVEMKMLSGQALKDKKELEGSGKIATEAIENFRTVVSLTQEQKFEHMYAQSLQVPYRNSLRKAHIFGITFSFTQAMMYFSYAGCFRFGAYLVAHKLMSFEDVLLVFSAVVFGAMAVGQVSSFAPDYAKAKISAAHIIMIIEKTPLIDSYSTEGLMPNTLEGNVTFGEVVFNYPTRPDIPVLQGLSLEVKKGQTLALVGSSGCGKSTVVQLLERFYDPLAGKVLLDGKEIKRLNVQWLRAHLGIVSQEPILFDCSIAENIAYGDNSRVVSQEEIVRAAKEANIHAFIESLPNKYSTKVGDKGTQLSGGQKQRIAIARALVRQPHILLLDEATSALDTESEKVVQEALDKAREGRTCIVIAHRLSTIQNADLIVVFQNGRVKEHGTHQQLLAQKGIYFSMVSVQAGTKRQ
# [7] = not given; remark: listed apart in the source
# [8] = system: patients with NVAF; settings: 12 weeks
# [9] = system: patients with AF; settings: atrial fibrillation
# [10] = normally distributed, mean 0, Krekels et al. (2016) model
# [11] = population mean, Krekels et al. (2016), Phases I and III
# [12] = population mean, Phases I and III
# [13] = population mean, Phases I, II and III
# [14] = population mean, Phases I and II
smiles,measurement,setting,value
CN1CCc2nc(C(=O)N[C@@H]3C[C@@H](C(=O)N(C)C)CC[C@@H]3NC(=O)C(=O)Nc3ccc(Cl)cn3)sc2C1 [edoxaban],Significant covariates: CRCL (PK parameters influenced),Krekels et al. (2016),CL/F
same,CL/F (CLNR/F),"non-renal clearance, population mean, Krekels et al. (2016), Phases I and III",13.8 L/h
same,variance of ηCL/F (between-subject variability),[10],0.0185
same,variance of ηQ/F (between-subject variability),[10],0.2285
same,variance of ηVc/F (between-subject variability),[10],0.04623
same,variance of ηVp/F (between-subject variability),[10],0.2285
same,Ka,[11],2.16 h⁻¹
same,Lag time,[11],0.25 h
same,Q/F,[11],5.75 L/h
same,Vc/F,[11],194 L
same,Vp/F,[11],88.6 L
same,Significant covariates: Body weight (PK parameters influenced),[1],"CLNR/F, Q/F,; also recorded: Vc/F, Vp/F"
same,Significant covariates: CRCL (PK parameters influenced),[1],CL/F
same,Significant covariates: P-gp inhibition (PK parameters influenced),[1],"CL/F, F"
same,Significant covariates: Race (PK parameters influenced),[1],Vc/F
same,CL/F (CLNR/F),"[1]; non-renal clearance, population mean, Phases I and III",15.5 L/h
same,Ka,[1]; [12],3.35 h⁻¹
same,Lag time,[1]; [12],0.25 h
same,Q/F,[1]; [12],5.92 L/h
same,Vc/F,[1]; [12],209 L
same,Vp/F,[1]; [12],92.3 L
same,trough edoxaban level required to reduce the risk of a major bleeding event below 2%,[2],< 30 ng/mL
same,trough edoxaban level required to reduce the risk of a major bleeding event below […],[2],< 40 ng/mL
same,CL/F,[3],32.1 L/h
same,Ka,[3],3.54 h⁻¹
same,Lag time,[3],0.39 h
same,Q/F,[3],8.85 L/h
same,Vc/F,[3],214 L
same,Vp/F,[3],134 L
same,Significant covariates: Age (PK parameters influenced),[4],"CL/F, Ka"
same,Significant covariates: Body weight (PK parameters influenced),[4],"CL/F, Vc/F"
same,Significant covariates: CRCL (PK parameters influenced),[4],CL/F
same,Significant covariates: P-gp inhibition (PK parameters influenced),[4],"Vc/F, Ka, F"
same,CL/F,[4]; [13],11.4 L/h
same,F,[4]; [13],0.58
same,Ka,[4]; [13],1.08 h⁻¹
same,Lag time,[4]; [13],0.25 h
same,Q/F,[4]; [13],2.73 L/h
same,Vc/F,[4]; [13],151 L
same,Vp/F,[4]; [13],42.9 L
same,Significant covariates: Body weight (PK parameters influenced),[5],Vc/F
same,Significant covariates: CRCL (PK parameters influenced),[5],CL/F
same,Significant covariates: Food (PK parameters influenced),[5],Ka
same,Significant covariates: P-gp inhibition (PK parameters influenced),[5],"CL/F, Ka, F"
same,Significant covariates: Patient status (PK parameters influenced),[5],Vc/F
same,CL/F,[5]; [14],36 L/h
same,F,[5]; [14],1
same,Ka,[5]; [14],5.87 h⁻¹
same,Lag time,[5]; [14],0.42 h
same,Q/F,[5]; [14],6.42 L/h
same,Vc/F,[5]; [14],244 L
same,Vp/F,[5]; [14],90.3 L
same,P-gp substrate status,[6],substrate of P-gp
same,Metabolism (extent),"[7]; by CES1, CYP3A4 and glucuronidation",< 30%
same,time of peak plasma concentrations,[7]; following oral administration,1 to 2 h
same,time of peak levels,"[7]; immediate-release doses, taken without food",1 to 2 h
same,time of peak levels with food,"[7]; immediate-release doses, with food vs without food",an hour later
same,Renal clearance as share of total body clearance,[7]; in vivo,~50%
same,accumulation upon repeat dosing,[7]; in vivo,minimal accumulation
same,effect of food on rate of absorption,[7]; in vivo,decreases the rate of absorption
same,effect of food on total exposure,[7]; in vivo,does not affect
same,increase of total systemic exposure (AUC∞),[7]; moderate or severe renal impairment vs normal renal function,almost two-fold
same,bioavailability,[7]; oral,approximately 62%
same,terminal half-life,[7]; oral administration,10 to 14 h
same,dose linearity of pharmacokinetics,[7]; over the therapeutic range of doses,linear
same,unchanged drug found in the faeces,[7]; partly due to biliary elimination,30-50%
same,"risk of bleeding, 30 mg twice-daily vs 60 mg once-daily",[8],greater
CC(=O)CC(c1ccccc1)c1c(O)c2ccccc2oc1=O (centres unmarked) [warfarin],reduction of stroke,[9],about 60%
